In one assay the test system is dHL-60 cells. The experiment in a line: Cellular production of HOCl, PMA-activated dHL-60 cells. Format: cell-based, human. The conditions noted are these: 20 μM compound, 100 nM PMA, 1 h. As for the experimental part:
Human promyelocytic leukemic cells (HL-60) (BCRJ, RJ, Brazil) were cultivated in RPMI with fetal bovine serum (10%), penicillin (62 μg/mL), and streptomycin (100 μg/mL) at 37 °C in 5% CO2 atmosphere. HL-60 cells were differentiated to neutrophil-like (dHL-60) by DMSO (1.25%) during 4 days.[25]
(§1) Measurement of HOCl production by 1 × 10^6 dHL-60 or neutrophils was carried out in PBS (10 mM Na2HPO4, 2 mM KH2PO4, 0.5 mM MgCl2, 1 mM CaCl2, 140 mM NaCl, 5.5 mM dextrose, 100 μM diethylenetriaminepentaacetic acid, 5 mM taurine) in the presence of the compounds (20 μM in 0.3% DMSO) or 0.3% DMSO (control). Cells were activated with phorbol myristate acetate (100 nM) at 37 °C for 1 h. After incubation, cells were centrifuged at 1400 rpm for 10 min, and the supernatant was diluted threefold. Finally, 240 μL of this supernatant was added to 60 μL acetate buffer (400 mM, pH 5.4) containing NaI (100 μM) and TMB (2 mM in DMFO 10%). Taurine chloramine was quantified by TMB oxidation at 655 nm.[33] Inhibition of HOCl production was calculated as the percentage of the control (vehicle).

Another assay has as its system human neutrophils. The experiment in a line: MSU-induced NETosis assay (sytox green fluorescence microscopy). Format: cell-based. The conditions noted are these: 20 μM compound, MSU 250 μg/mL, 90 min. How it is done: NETosis assay was conducted on human neutrophils adhered to lysine-coated glass coverslips as previously reported.[80] After neutrophils’ adhesion, the compounds were diluted in RPMI medium (free of phenol red and fetal bovine serum) at a final concentration of 20 μM (0.15% DMSO) and added to the cells for 15 min at 37 °C in a 5% CO2 atmosphere. Then, MSU crystals (250 μg/mL), known to induce NETosis, were added. After 90 min incubation, the medium was carefully removed, paraformaldehyde was added (500 μL at 4%), and incubated at 4 °C overnight. In the following day, paraformaldehyde was removed, and cells were washed threefold with tris-HCl buffer (20 mM, pH 7.4) and kept into the same buffer at 4 °C. Tris-HCl buffer was carefully removed, and DNA was stained by adding 500 μL SYTOX Green (500 nM diluted in tris-HCl buffer). The system was kept for 30 min at room temperature, protected from light. After staining, the coverslips were mounted over the glass slides using ProLong Diamond Antifade Mountant fixation medium. Fluorescence images were acquired in an Axiovert 200 (Zeiss) fluorescence microscope with a 20x/0.4 objective and Zeiss Filter Set 09, λex = 450–490 nm, λem = above 515 nm. Images were taken by an Axiocam HR R3 camera device.

Assay [1] deals with human peripheral blood neutrophils. In words: Cellular production of HOCl, PMA-activated peripheral blood neutrophils. Format: cell-based. The conditions noted are these: 20 μM compound, 100 nM PMA, 1 h. How it is done: Human neutrophils were obtained from healthy individuals as previously described.[24] The experiments were approved by the local ethics committee (CEPSH-ICB 1435/18).
as §1

The target of assay [2] is T1, Human leukocyte MPO (Homo sapiens, UniProt P05164). The conditions noted are these: read-out: previously reported IC50 for MPO; cited from earlier work.
T1 sequence (P05164 279-745 limits assumed): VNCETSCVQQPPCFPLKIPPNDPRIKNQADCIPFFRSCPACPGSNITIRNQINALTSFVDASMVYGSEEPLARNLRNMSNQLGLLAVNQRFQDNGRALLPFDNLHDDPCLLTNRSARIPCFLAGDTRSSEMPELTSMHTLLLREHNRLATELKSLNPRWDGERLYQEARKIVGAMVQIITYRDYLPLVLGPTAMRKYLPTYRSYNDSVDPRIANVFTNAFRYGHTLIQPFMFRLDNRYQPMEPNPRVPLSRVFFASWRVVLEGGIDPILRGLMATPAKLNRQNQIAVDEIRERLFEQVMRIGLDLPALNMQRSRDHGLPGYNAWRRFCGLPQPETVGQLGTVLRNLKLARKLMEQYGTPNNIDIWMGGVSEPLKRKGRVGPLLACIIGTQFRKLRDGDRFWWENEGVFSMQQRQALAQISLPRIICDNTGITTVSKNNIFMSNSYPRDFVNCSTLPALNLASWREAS
T1 sequence (P05164 165-278 limits assumed): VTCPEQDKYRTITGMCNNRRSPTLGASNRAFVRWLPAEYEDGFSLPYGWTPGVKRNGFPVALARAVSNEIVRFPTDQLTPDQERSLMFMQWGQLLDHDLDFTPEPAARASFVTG
For assay [3], the target named is T1, Human leukocyte MPO. The experiment in a line: MPO peroxidatic activity assay (AmplexRed oxidation). Format: biochemical. Details: Human leukocyte MPO (EC 1.7.1.11) was purchased from Planta Natural Products; purchased Planta Natural Products (Vienna, Austria); host or cells: human leukocytes. How it is done: MPO peroxidase activity was kinetically monitored using the artificial peroxidase substrate AmplexRed, which is oxidized to resorufin and can be detected by fluorescence.[34] Reactions were carried out in phosphate buffer (50 mM, pH 7.4), MPO (100 pM), cetyltrimethylammonium chloride (0.03%), diethylenetriaminepentaacetic acid (100 μM), AmplexRed (30 μM), and compounds (20 μM in 0.3% DMSO). The reaction was started by adding 2 μM hydrogen peroxide. The reaction product was assessed by fluorescence at λex = 530 and λem = 580 nm. The initial velocity was calculated by the slope of the linear regression in the first minutes of reaction. Inhibition is represented as a percentage of the control (vehicle).

For assay [4], the target named is T1, Human leukocyte MPO. The experiment in a line: MPO chlorinating activity assay (taurine chloramine/TMB). Format: biochemical. Details: Human leukocyte MPO (EC 1.7.1.11) was purchased from Planta Natural Products; purchased Planta Natural Products (Vienna, Austria); host or cells: human leukocytes. As for the experimental part: Chlorinating activity was carried out in phosphate buffer (20 mM, pH 7.4). Compounds (20 μM) were dissolved in 0.03% DMSO, MPO (10 nM), diethylenetriaminepentaacetic acid (100 μM), cetyltrimethylammonium chloride (0.03%), NaCl (140 mM), and taurine (5 mM).[31] This mixture was incubated at 37 °C for 15 min before adding 40 μM hydrogen peroxide. The reaction ran for 8 min and was then stopped by catalase (20 μg/mL). Oxidation of TMB (2 mM) (3,3,5,5-tetramethylbenzidine) by taurine chloroamine catalyzed by iodide (100 μM) was quantified at 650 nm.[33] Results were expressed as a percentage of the control (vehicle). IC50 was calculated by nonlinear regression using the Hill equation present in GraphPad Prism 5 software.

Assay [5] has as its system MSU-induced paw edema. The experiment in a line: MSU-induced paw edema, intraperitoneal treatment. Format: in vivo. The conditions noted are these: for reduction of paw edema (time-dependent AUC) vs VEH + MSU: 30 mg/kg i.p.; for effect on paw edema over time: i.p. 30 min before MSU, mefenamic acid 30 mg/kg, RL6 3, 10, 30, RL7 0.3, 3, 30, ZINC9089086 3, 10, 30 mg/kg, 6 h. As for the experimental part: MSU-induced edema was performed as previously described.[22] The compounds were prepared by dilution in a solution containing 0.5% Tween 80 and 5% DMSO and then resuspended in PBS prior to administration. The animals were treated intraperitoneally (i.p.) with the following substances: vehicle (VEH: 5% DMSO; 0.5% Tween 80 in PBS), mefenamic acid (a nonsteroidal anti-inflammatory drug at a dosage of 30 mg/kg), RL6 (at doses of 3, 10, and 30 mg/kg), RL7 (at doses of 0.3, 3, and 30 mg/kg), or ZINC9089086 (at doses of 3, 10, and 30 mg/kg).[31] After 30 min, the mice were anesthetized using inhaled isoflurane (2% v/v in O2). A hypodermic syringe with a 31-gauge needle (BD, Franklin Lakes, NJ, USA) was used to administer the vehicle (VEH: PBS, 30 μL) or MSU (1.5 mg/30 μL) via the intraplantar route (i.pl.), into the right hind paw (Figure 9).
(§2) Paw volume (mL) was measured at various time points, including before injection (baseline, B), […] 1, 2, 3, 4, 5, and 6 h following MSU injection using a plethysmometer (Ugo Basile, Comerio, Italy) (Figure 7). For this, the injected hind paw was immersed into the dipping solution (6 mM NaCl diluted in distilled water and added with 2 mL/L of a wetting compound provided by the manufacturer) until the ankle. The extent of edema was quantified as a change in paw volume (Δ mL) by subtracting the basal paw volume from the volume of the paw measured at each time point. To evaluate the antiedematogenic effect of orally administered MPO inhibitors (p.o.), the animals were fasted for 1 h and then treated with equimolar doses of the following substances: vehicle (VEH: 5% DMSO; 0.5% tween 80 in PBS), mefenamic acid (30 mg/kg), RL 6 (33 mg/kg), RL 7 (54 mg/kg), RL 21 (30 mg/kg), or ZINC9089086 (34 mg/kg). After 1 h, the anesthetized mice (2% isoflurane, v/v in O2) received either the vehicle (PBS, 30 μL, i.pl.) or 1.5 mg/30 μL MSU (i.pl.). The paw volume was evaluated at the same time points as previously described. The percentage of edema inhibition by the compounds was calculated discounting the paw volume of mice that received oral or intraperitoneal vehicle and PBS intraplantar (VEH + VEH).

The subject of assay [6] is MSU-induced paw edema. The experiment in a line: MSU-induced paw edema, oral treatment. Format: in vivo, male C57BL/6 mice. How it is done: as §2
A further assay has as its system IL-6. In words: Paw tissue IL-6 level after MSU (ELISA). Format: in vivo, male C57BL/6 mice. The conditions noted are these: intraperitoneal pretreatment (RL6 30 mg/kg), tissue collected at 6 h. As for the experimental part: (§3) The remaining part of the homogenate was treated with a solution of protease/phosphatase inhibitors (1 mM phenylmethylsulfonyl fluoride, 10 μg/mL leupeptin, and 10 μg/mL trypsin inhibitor) and centrifuged at 10,000g (10 min at 4 °C). The obtained supernatants were subjected to 1:2 dilution in PBS and subsequently used for the assessment of IL-1β and IL-6 using murine enzyme-linked immunosorbent assay kits, specifically a sandwich ELISA technique, following manufacturer’s instructions (BioLegend, CA, USA). The protein content within the samples was determined by using the Bradford method (1976). The results were quantified and expressed in pg/mg of protein (Bio-Rad, Hercules, CA, USA).[76]

The subject of the next assay is IL-1β. In words: Paw tissue IL-1β level after MSU (ELISA). Format: in vivo, male C57BL/6 mice. The conditions noted are these: intraperitoneal pretreatment (RL6 30 mg/kg), tissue collected at 6 h. How it is done:
as §3

For assay [7], the system named is total peroxidase activity. The experiment in a line: Paw tissue total peroxidase activity after MSU. Format: in vivo, male C57BL/6 mice. The conditions noted are these: intraperitoneal pretreatment (RL6 30 mg/kg), tissue collected at 6 h. How it is done:
After the assessment of paw edema was completed, the mice were immediately anesthetized by inhalation of 2% isoflurane mixture in oxygen (O2). Subsequently, the surface of the hind paws was collected for the measurement of total peroxidase activity, IL-6, and IL-1β. These tissue samples were then frozen using dry ice and stored at −80 °C until further analysis. The frozen tissues were later pulverized into a fine powder using liquid nitrogen and homogenized in a phosphate buffer (100 mM, pH 7.4). For the analysis of total peroxidase activity, a portion of this homogenate was mixed with hexadecyltrimethylammonium (1% HTAB, pH 6.0), vigorously vortexed, and sonicated. The resulting mixture was then centrifuged at 10,000g for 10 min, at 4 °C, and heated at 60 °C for 2 h. The sample of each supernatant was incubated with a solution containing 50 mM phosphate buffer, 0.164 mg/mL of o-dianisidine dihydrochloride, and H2O2 (0.0005%, pH 6.0). […] Each unit represents the capacity to degrade 1 μmol of H2O2 per minute.[81]

Molecules are shown by their SMILES. Like-named read-outs stand apart in the source and are kept apart here.

For the molecule `CCCc1cc(=O)[nH]c(=S)[nH]1` [PTU, propylthiouracil, reference compound], in the assay on dHL-60 cells, the “inhibition of HOCl production in dHL-60 cells” value is “most effective”. Further, the “inhibition of MSU-induced NETosis” value with human neutrophils is on record as “strongly inhibited”. The “inhibition of HOCl production in peripheral blood neutrophils” value in assay [1] was “most effective”. Further, the IC50 on Human leukocyte MPO [2] is 3.38 µM; against Human leukocyte MPO [4] (10 nM MPO, 140 mM NaCl, pH 7.4) it was 5.25 µM. Besides, the inhibition at 20 µM was 94.1 ± 26.4% at Human leukocyte MPO [3] (20 μM compound, 100 pM MPO, 30 μM AmplexRed, 2 μM H2O2, pH 7.4, read-out: % Inhibition (at 20 μM) Peroxidatic); 94.1 ± 26.4% at Human leukocyte MPO [3] (supplementary csv copy of Table 1, read-out: % Inhibition (Peroxidatic)); 92.3 ± 11.6% at Human leukocyte MPO [4] (20 μM compound, 10 nM MPO, 140 mM NaCl, 5 mM taurine, 40 μM H2O2, pH 7.4, read-out: % Inhibition (at 20 μM) Chlorinating); 92.3 ± 11.6% at Human leukocyte MPO [4] (supplementary csv copy of Table 1, read-out: % Inhibition (Chlorinating)).

As to `CCc1c(O)[nH]c2nc3ccccc3n2c1=O` [ZINC9089086], in the assay on MSU-induced paw edema [5], the “reduction of paw edema (time-dependent AUC) vs VEH + MSU” value was found to be 93.4% and the “effect on paw edema over time” value is “inhibited paw edema at all of the tested doses”. Besides, the “inhibition of edema vs VEH + MSU” value in the assay on MSU-induced paw edema [6] (34 mg/kg po) was “no significant inhibition”. Moreover, the “effect on IL-6 levels in hind paw tissue” value in the assay on IL-6 is listed as “unable to decrease”. Moreover, the “decrease in IL-1β levels in hind paw tissue” value in the assay on IL-1β was “unable to decrease”. Also, in assay [7], the “reduction in total peroxidase activity in hind paw tissue” value was “unable to decrease”.

For `Cc1cccc(Nc2ccccc2C(=O)O)c1C` [mefenamic acid, reference compound], in the assay with MSU-induced paw edema [5], the “reduction of paw edema (time-dependent AUC) vs VEH + MSU” value worked out at 91.1% and the “effect on paw edema over time” value is listed as “prevented paw edema for up to 4 h”. For the same molecule, the “inhibition of edema vs VEH + MSU” value with MSU-induced paw edema [6] (30 mg/kg, positive control of the oral experiment (Figure 8 legend: i.p.)) was 77.3%. Further, in the assay on IL-6, the “effect on IL-6 levels in hind paw tissue” value is reported as “unable to decrease”. Also, in the assay on IL-1β, the “decrease in IL-1β levels in hind paw tissue” value is recorded as “unable to decrease”. Besides, the “reduction in total peroxidase activity in hind paw tissue” value in assay [7] was “unable to decrease”.

The values above are taken from publication PMC11284790, “Targeting Myeloperoxidase Ameliorates Gouty Arthritis: A Virtual Screening Success Story” (Journal of Medicinal Chemistry, 2024).
